Converted amounts (≈) assume the structure as drawn.
Assays:
Type in all cases: functional, cell-based
HL-60 = assay: Cytotoxicity against human HL60 cells after 48 hrs by MTT assay; details: HL-60, 48 h
[1] = Cytotoxicity against human PC-3MIE8 cells after 48 hrs by MTT assay; details: PC-3MIE8, 48 h
BGC-823 = assay: Cytotoxicity against human BGC823 cells after 48 hrs by MTT assay; details: BGC-823, 48 h
[2] = Cytotoxicity against human […] cells after 48 hrs by MTT assay
Bel-7402 = assay: Cytotoxicity against human Bel7402 cells after 48 hrs by MTT assay; details: Bel-7402, 48 h
HeLa = assay: Cytotoxicity against human HeLa cells after 48 hrs by MTT assay

Row | SMILES | IC50 (HL-60) [µg/mL] | IC50 [1] [µg/mL] | IC50 (BGC-823) [µg/mL] | IC50 [2] [µg/mL] | IC50 (Bel-7402) [µg/mL] | IC50 (HeLa) [µg/mL]
1 | CC(=O)/C=C\C(=O)/C(C)=C/C=C/C(C)=C1/C(=O)C[C@H]2[C@@]3(C)CCC(=O)C(C)(C)[C@@H]3CC[C@]12C | > 5 | > 5 | > 5 | > 5 | > 5 | > 5
2 | CC1=CC[C@@H](/C(C)=C/C=C/C(C)=C2\C(=O)C[C@H]3[C@@]4(C)CCC(=O)C(C)(C)[C@@H]4CC[C@]23C)OC1=O [22,23-DIHYDROSTELLETTIN B] | > 5 | > 5 | > 5 | > 5 | > 5 | > 5
3 | COc1cc2c(c(OC)c1OC)-c1ccc(OC)c(=O)cc1[C@@H](NC(C)=O)CC2 [COLCHICINE] | 1.6 (≈ 4.01 µM) | 0.7 (≈ 1.75 µM) | 0.6 (≈ 1.5 µM) | 0.2 (≈ 0.501 µM) | 0.3 (≈ 0.751 µM) | 0.1 (≈ 0.25 µM)
4 | CC(=O)/C=C/C(=O)/C(C)=C/C=C/C(C)=C1\C(=O)C[C@H]2[C@@]3(C)CCC(=O)C(C)(C)[C@@H]3CC[C@]12C [GEODITIN A] | > 5 | > 5 | > 5 | > 5 | > 5 | > 5
5 | CC(=O)/C=C/C(=O)/C(C)=C/C=C/C(C)=C1\C(=O)C[C@H]2[C@@]3(C)CC[C@H](OC(C)=O)C(C)(C)[C@@H]3CC[C@]12C [GEODITIN B] | > 5 | > 5 | > 5 | > 5 | > 5 | > 5
6 | CC(=O)/C=C\C(=O)/C(C)=C/C=C/C(C)=C1\C(=O)C[C@H]2[C@@]3(C)CCC(=O)C(C)(C)[C@@H]3CC[C@]12C [ISOGEODITIN A] | 0.13 (≈ 0.288 µM) | 0.07 (≈ 0.155 µM) | 0.47 (≈ 1.04 µM) | 1.2 (≈ 2.66 µM) | 3.7 (≈ 8.21 µM) | 0.35 (≈ 0.777 µM)
7 | CC(=O)/C=C\C(=O)/C(C)=C/C=C/C(C)=C1\C(=O)C[C@H]2[C@@]3(C)CC[C@H](OC(C)=O)C(C)(C)[C@@H]3CC[C@]12C [ISOGEODITIN B] | 0.5 (≈ 1.01 µM) | 3.4 (≈ 6.87 µM) | 2.2 (≈ 4.45 µM) | 2.2 (≈ 4.45 µM) | 3.9 (≈ 7.88 µM) | 3 (≈ 6.06 µM)
8 | COC(=O)/C(C)=C/C=C/C(C)=C/C=C/C(C)=C1/C(=O)C[C@H]2[C@@]3(C)CCC(=O)C(C)(C)[C@@H]3CC[C@]12C [RHABDASTRELLIC ACID A METHYL ESTER] | > 5 | > 5 | > 5 | > 5 | > 5 | > 5
9 | CC(/C=C/C=C(\C)C(=O)O)=C\C=C\C(C)=C1\C(=O)C[C@H]2[C@@]3(C)CCC(=O)C(C)(C)[C@@H]3CC[C@]12C [RHABDASTRELLIC ACID A] | > 5 | > 5 | > 5 | > 5 | > 5 | > 5
10 | C\C(=C/C=C/C(C)=C1/C(=O)C[C@H]2[C@@]3(C)CCC(=O)C(C)(C)[C@@H]3CC[C@]12C)c1ccc(C)c(=O)o1 [STELLETIN A] | > 5 | > 5 | > 5 | > 5 | > 5 | > 5
11 | CC(/C=C/C=C(C)/C=C/C=C(\C)C(=O)O)=C1/C(=O)C[C@H]2[C@@]3(C)CCC(=O)C(C)(C)[C@@H]3CC[C@]12C [STELLETIN E] | > 5 | > 5 | > 5 | > 5 | > 5 | > 5
12 | CC(/C=C/C=C(\C)c1ccc(C)c(=O)o1)=C1/C(=O)C[C@H]2[C@@]3(C)CCC(=O)C(C)(C)[C@@H]3CC[C@]12C [STELLETTIN B] | 0.2 (≈ 0.432 µM) | > 5 | > 5 | > 5 | > 5 | > 5
13 | CC(=O)O[C@H]1CC[C@@]2(C)[C@@H](CC[C@]3(C)\C(=C(C)/C=C/C=C(\C)c4ccc(C)c(=O)o4)C(=O)C[C@@H]23)C1(C)C [STELLETTIN C] | > 5 | 3.1 (≈ 6.12 µM) | > 5 | > 5 | > 5 | > 5
14 | COC(=O)/C(C)=C/C=C/C(C)=C/C=C/C(C)=C1\C(=O)C[C@H]2[C@@]3(C)CCC(=O)C(C)(C)[C@@H]3CC[C@]12C [STELLETTIN E METHYL ESTER] | 4.2 (≈ 8.77 µM) | > 5 | > 5 | > 5 | > 5 | > 5

From ChEMBL document CHEMBL1148972, “Isomalabaricane-type compounds from the marine sponge Rhabdastrella aff. distincta” (J Nat Prod, 2004)
